From publication PMC11079024, “Identification of a family of species-selective complex I inhibitors as potential anthelmintics” (Nature Communications, 2024)
Values joined by “and” are separate entries in the source; they are usually repeats but may differ in a detail not shown here. Identical values can stand only once. Like-named read-outs stand apart in the source and are kept apart here.

Columns and labels:
[1] = tested on: C. elegans complex III (decylubiquinol-cytochrome C reductase); test: In vitro complex III activity assay, C. elegans mitochondria; format: biochemical, Caenorhabditis elegans; conditions: for % Activity Complex III: 100 µM compound, relative to solvent control, mean (SEM); for CIII Activity: 100 μM inhibitor, in vitro activity relative to solvent control, N2 C. elegans mitochondria; for Percent in vitro activity, Complex III (single replicate Rep1-Rep4) / Percent in vitro activity, Complex III (Mean): 100 μM of NPD compound, C. elegans mitochondria; for Percent in vitro activity, Complex III (single replicate Rep1-Rep4): individual biological replicates; for Percent in vitro activity, Complex III (Mean): mean of four biological replicates
In short: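 Mitochondria were isolated from adult C. elegans by bead-beating and differential centrifugation, then used at 0.2 mg/mL protein. Antimycin A-sensitive complex III activity was followed as decylubiquinol-driven cytochrome C reduction at 550 nm every 30 s for 15 min. Initial linear slopes were expressed as percent of solvent control.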

[2] = molecular target: C. elegans complex II (succinate dehydrogenase) (Caenorhabditis elegans, UniProt O62215+P41956+Q09545); test: In vitro complex II activity assay, C. elegans mitochondria; format: biochemical; conditions: for Percent in vitro activity, Complex II (single replicate Rep1-Rep4): individual biological replicates, 100 µM
C. elegans complex II (succinate dehydrogenase), sequence (P41956 30-182): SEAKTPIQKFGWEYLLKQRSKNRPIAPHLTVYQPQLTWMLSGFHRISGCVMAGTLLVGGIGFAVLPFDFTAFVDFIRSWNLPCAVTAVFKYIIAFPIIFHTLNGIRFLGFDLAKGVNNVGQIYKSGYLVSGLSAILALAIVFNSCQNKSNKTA
C. elegans complex II (succinate dehydrogenase), sequence (Q09545 22-298): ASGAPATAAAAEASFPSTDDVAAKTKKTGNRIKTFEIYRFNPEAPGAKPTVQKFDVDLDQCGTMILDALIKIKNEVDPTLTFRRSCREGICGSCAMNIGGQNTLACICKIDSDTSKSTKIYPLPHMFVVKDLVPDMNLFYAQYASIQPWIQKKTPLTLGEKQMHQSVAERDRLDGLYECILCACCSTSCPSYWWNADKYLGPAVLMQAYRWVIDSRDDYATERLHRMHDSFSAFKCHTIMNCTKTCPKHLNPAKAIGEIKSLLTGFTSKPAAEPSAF
C. elegans complex II (succinate dehydrogenase), sequence (Q09508 32-646, further chain): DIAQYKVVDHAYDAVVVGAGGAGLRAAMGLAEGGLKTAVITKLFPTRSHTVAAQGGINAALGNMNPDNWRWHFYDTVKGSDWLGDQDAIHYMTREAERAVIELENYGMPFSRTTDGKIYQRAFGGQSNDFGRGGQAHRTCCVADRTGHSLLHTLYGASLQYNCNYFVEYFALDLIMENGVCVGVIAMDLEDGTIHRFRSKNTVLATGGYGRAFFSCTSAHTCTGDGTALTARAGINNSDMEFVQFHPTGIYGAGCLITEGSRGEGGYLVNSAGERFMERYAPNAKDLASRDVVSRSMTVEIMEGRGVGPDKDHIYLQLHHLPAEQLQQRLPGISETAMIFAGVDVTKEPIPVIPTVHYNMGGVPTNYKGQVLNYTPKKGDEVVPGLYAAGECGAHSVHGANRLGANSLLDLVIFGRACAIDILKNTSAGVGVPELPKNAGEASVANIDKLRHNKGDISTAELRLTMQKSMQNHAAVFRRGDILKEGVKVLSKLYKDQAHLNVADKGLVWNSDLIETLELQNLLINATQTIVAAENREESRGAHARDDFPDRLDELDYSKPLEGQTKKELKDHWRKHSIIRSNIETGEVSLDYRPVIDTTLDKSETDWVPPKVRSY
C. elegans complex II (succinate dehydrogenase), sequence (O62215 31-145): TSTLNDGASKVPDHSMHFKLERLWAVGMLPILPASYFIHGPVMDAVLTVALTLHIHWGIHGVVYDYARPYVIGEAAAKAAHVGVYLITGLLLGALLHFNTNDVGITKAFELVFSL
In short: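 Mitochondria isolated from adult C. elegans were diluted to 0.2 mg/mL protein and assayed for complex II by the DCIP-coupled method. A600 was read every 30 s over 15 min, with initial linear slope expressed as percent of solvent control. Screening was at 100 μM (≥3 biological replicates), followed by dose-response.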

[3] = 100 µM compound, relative to solvent control, mean (SEM), read-out: % Activity Complex II
[4] = 100 μM of NPD compound, C. elegans mitochondria
[5] = 100 μM of NPD compound, C. elegans mitochondria, mean of four biological replicates, read-out: Percent in vitro activity, Complex II (Mean)

Structure (SMILES)	% Activity Complex III [1]	CIII Activity ([1]; Mean)	CIII Activity ([1]; single replicate)	Percent in vitro activity, Complex III (single replicate Rep1-Rep4) [1]	Percent in vitro activity, Complex III (Mean) [1]	activity at 100 µM [2, 3]	activity at 100 µM ([2]; 100 μM inhibitor, in vitro activity relative to solvent control, N2 C. elegans mitochondria, Mean, read-out: CII Activity)	Percent in vitro activity, Complex II (single replicate Rep1-Rep4) [2, 4]	activity at 100 µM [2, 5]
C=C(C)[C@H]1Cc2c(ccc3c2O[C@@H]2COc4cc(OC)c(OC)cc4[C@@H]2C3=O)O1 [Rotenone, reference compound]	99.20 (1.32) %	99.203%	92.288% and 102.759% and 97.964% and 103.800%	102.759% and 97.964% and 103.800% and 92.288%	99.203%	106%	106%	120.467% and 95.666% and 95.033% and 112.709%	106%
COc1cc2c(cc1OC)C(c1ccc(-c3ccc(Cl)c(Cl)c3)o1)=NCC2 [NPD3577]	65.54 (2.59) %			80.555% and 63.410% and 61.250% and 56.942%	65.539%	115%		133.014% and 126.621% and 103.513% and 97.309%	115%
